Laboratory results taken from PubChem BioAssay (NCI).
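Briefly, cells in 96-well plates were exposed to five compound concentrations for 48 h, and endpoints were estimated by linear interpolation. GI50 = concentration required for 50% inhibition of growth. The concentration for full growth arrest is given as TGI.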

Tests used:
Experiment in all cases: NCI anticancer screen, dose series, 48 h
SR leukemia = system: SR leukemia
HCT-116 colon = system: HCT-116 colon
HL-60(TB) leukemia = system: HL-60(TB) leukemia
SNB-75 CNS = system: SNB-75 CNS
NCI/ADR-RES ovarian = system: NCI/ADR-RES ovarian
RXF 393 renal = system: RXF 393 renal
U251 CNS = system: U251 CNS
A549 NSCLC = system: A549 NSCLC
SK-MEL-5 melanoma = system: SK-MEL-5 melanoma
HOP-62 NSCLC = system: HOP-62 NSCLC

Compound | GI50 (SR leukemia) [µM] | TGI (SR leukemia) [µM] | GI50 (HCT-116 colon) [µM] | TGI (HCT-116 colon) [µM] | GI50 (HL-60(TB) leukemia) [µM] | TGI (HL-60(TB) leukemia) [µM] | GI50 (SNB-75 CNS) [µM] | TGI (SNB-75 CNS) [µM] | GI50 (NCI/ADR-RES ovarian) [µM] | TGI (NCI/ADR-RES ovarian) [µM] | GI50 (RXF 393 renal) [µM] | TGI (RXF 393 renal) [µM] | GI50 (U251 CNS) [µM] | TGI (U251 CNS) [µM] | GI50 (A549 NSCLC) [µM] | TGI (A549 NSCLC) [µM] | GI50 (SK-MEL-5 melanoma) [µM] | TGI (SK-MEL-5 melanoma) [µM] | GI50 (HOP-62 NSCLC) [µM] | TGI (HOP-62 NSCLC) [µM]
C[C@]12CC[C@H]3[C@@H](CC=C4C[C@@H](O)CC[C@@]43C)[C@@H]1C/C(=C\c1cccc(OCCCn3ccnc3)c1)[C@@H]2O | 6.67 | 47.7 | 5.99 | 21.1 | 8.1 | 34.3 | 14.1 | 28.8 | 20.4 | 99.7 | 4.7 | 20.8 | 11.8 | 24.7 | 12.9 | 28.5 | 6.26 | 20.4 | 15.1 | 32.7
O=C(Nc1cccc(-c2nc3ccccc3[nH]2)c1)c1cccc(NC(=O)c2ccco2)c1 | 2.33 | 6.53 | 1.74 | 3.11 | 5.43 | 17.4 | 1.55 | 2.91 | 7.92 | 66 | 1.51 | 3.55 | 1.73 | 3.23 | 1.88 | 3.95 | 1.89 | 4.1 | 2.06 | 4.3
N#Cc1c(SCc2ccccc2)nc2[nH]c(=S)[nH]c(=S)c2c1-c1ccco1 | 19.1 | > 100 | 21.6 | > 100 | 40.6 | > 100 | > 100 | > 100 | 26.6 | > 100 | 37.9 | > 100 | > 100 | > 100 | 64.1 | > 100 | 23.9 | > 100 | 58.4 | > 100
C[C@]12CC[C@@H]3c4ccc(OCC(=O)O)cc4CC[C@H]3[C@@H]1CCC2=O |  | > 100 |  | > 100 |  | 0.317 |  | > 100 |  | > 100 |  | > 100 |  | > 100 |  | > 100 |  | > 100 |  | > 100
O=C1C=CC(=O)N1c1ccc2c(c1)Cc1cc(NC(=O)C(F)(F)F)ccc1-2 |  | 6.44 |  | 22.6 |  | 38.1 |  | 31.3 |  | > 75.7 |  | 23.7 |  | 34 |  | 34.5 |  | > 100 |  | 50.7
C[C@@H](Oc1cc(-c2cnn(C3CC4(CCNCC4)C3)c2)cnc1N)c1c(F)ccc(Cl)c1Cl | 0.0467 | 1.53 | 0.671 | 2.65 | 1.28 | 3.36 | 1.32 | 2.92 | 6.61 | 21.2 | 1.35 | 2.73 | 1.6 | 3.92 | 1.04 | 3.63 | 1.47 | 2.85 | 1.25 | 5.9
CN(C)c1ccc2[nH]c(O)c(C=Nc3ccc(S(N)(=O)=O)cc3)c2c1 | 13.5 | > 25 | 20.3 | > 25 | > 25 | > 25 | > 25 | > 25 | > 25 | > 25 | > 25 | > 25 | > 25 | > 25 | > 25 | > 25 | > 25 | > 25 | > 25 | > 25
COc1cc(N)ccc1Nc1c2ccccc2nc2ccccc12 | 2.11 | > 32.5 | 2.51 | 7.63 | 5.49 | 18.5 | 10.8 | 31.2 | 15.4 | 45.3 | 11.5 | 27 | 4.39 | 11.5 | 4.32 | 24.9 | 7.52 | 21.5 | 9.98 | 27.9
